This is an account of results in patent publication US20260022142A1, “MACROCYCLIC IMMUNOMODULATORS” (Bristol-Myers Squibb Company, priority 2022, published 2026).

Numbered stars: 1 amine (or outer) side, 2 acyl side, 3 side chain; on linkers, the order of the positions; unused ones are H or OH. Bridge positions count the residues as written; N and C are the ends. Square brackets hold non-standard residues; d marks the D form. Peptide text beside a SMILES is read from it. * marks the point of attachment. Phe(3-CF3) = N[C@@H](Cc1cccc(C(F)(F)F)c1)C(=O)O; Phe(4-COOH) = N[C@@H](Cc1ccc(C(=O)O)cc1)C(=O)O; Phe(3,4-F2) = N[C@@H](Cc1ccc(F)c(F)c1)C(=O)O; Bip = N[C@@H](Cc1ccc(-c2ccccc2)cc1)C(=O)O; NH(CH2)14COOH = O=C(O)CCCCCCCCCCCCCCN*; Phe(3-Me) = Cc1cccc(C[C@H](N)C(=O)O)c1; βAsp = O=C(O)[C@H](CC(=O)[*:2])N[*:1]; NH(CH2)12COOH = O=C(O)CCCCCCCCCCCCN*; Val(3-OH) = CC(C)(O)[C@H](N)C(=O)O; hArg = N=C(N)NCCCC[C@H](N)C(=O)O; 3Pal = N[C@@H](Cc1cccnc1)C(=O)O; Cha = N[C@@H](CC1CCCCC1)C(=O)O; Cit = NC(=O)NCCC[C@H](N)C(=O)O; Carboxymethyl = O=C(O)C*; Nle = CCCC[C@H](N)C(=O)O; Orn = NCCC[C@H](N)C(=O)O; Aun = NCCCCCCCCCCC(=O)O; Dab = NCC[C@H](N)C(=O)O; Nva = CCC[C@H](N)C(=O)O; Dap = NC[C@H](N)C(=O)O; AEEA = NCCOCCOCC(=O)O

T1 sequence (Q15116 25-288): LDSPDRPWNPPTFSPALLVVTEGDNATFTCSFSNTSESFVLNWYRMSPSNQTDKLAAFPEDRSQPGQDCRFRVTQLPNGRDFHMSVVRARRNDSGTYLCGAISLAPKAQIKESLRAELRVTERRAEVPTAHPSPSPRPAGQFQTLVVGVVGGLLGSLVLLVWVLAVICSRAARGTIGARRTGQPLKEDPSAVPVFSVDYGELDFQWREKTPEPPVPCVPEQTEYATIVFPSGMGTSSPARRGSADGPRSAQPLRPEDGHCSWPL

The experiment addresses T1, PD-1/PD-L1 interaction (PE-labeled human PD-L1-Ig binding to Jurkat cell line over-expressing human PD-1) (Homo sapiens, UniProt Q15116).
T1 construct: expressed in transfected cells; host or cells: Jurkat
The experiment can be described thus: Jurkat-PD-1 Cell Binding High-Content Screening Assay (CBA). Format: cell-based. To be noted: Jurkat cell line over-expressing human PD-1; PE-labeled PD-L1-Ig 20 nM final; read-out: Jurkat hPD1-PDL1 IC50. In outline:
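Read-out is high-content imaging of cell-bound phycoerythrin-tagged PD-L1-Ig on fixed, Hoechst-counterstained Jurkat cells that over-express human PD-1. Compound exposure lasts 2 h at 37° C before the labeled ligand (20 nM final) is added for a further hour.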
Regarding `Cc1cccc(C[C@@H]2NC(=O)[C@H](CC(=O)O)NC(=O)[C@H](Cc3cccnc3)NC(=O)[C@H](CC(N)=O)NC(=O)CSC[C@@H](C(=O)N[C@@H](CCN)C(=O)NCCCCCCCCCCC(=O)O)NC(=O)[C@H](CCCN)NC(=O)[C@H](C(C)C)NC(=O)[C@H](CC3CCCCC3)NC(=O)[C@H](CCN)NC(=O)[C@@H](CC(C)C)NC(=O)[C@H](CCCN)NC(=O)[C@H](Cc3ccc(O)cc3)NC(=O)[C@H](Cc3ccc(-c4ccccc4)cc3)NC(=O)[C@H](C(C)C)NC2=O)c1` [Compound 2700] ({CH2CO}-N[3Pal]D[Phe(3-Me)]V[Bip]Y[Orn][dL][Dab][Cha]V[Orn]C[Dab][Aun]-OH; thioether N-14), the IC50 – broadly, the concentration needed to halve the response being measured – was 17.9 nM.

On to `CC(C)C[C@H]1NC(=O)[C@H](CCCN)NC(=O)[C@H](C(C)C)NC(=O)[C@H](Cc2ccc(-c3ccccc3)cc2)NC(=O)[C@H](C(C)C)NC(=O)[C@H](Cc2c[nH]c3ccccc23)NC(=O)[C@H](CC(=O)O)NC(=O)[C@H](Cc2ccc(C(=O)O)cc2)NC(=O)[C@H](Cc2ccc(OCC(=O)O)cc2)NC(=O)CSC[C@@H](C(=O)NCCOCCOCC(=O)N[C@@H](CCN)C(=O)NCCCCCCCCCCC(=O)O)NC(=O)[C@H](CCCCN)NC(=O)[C@H](C(C)C)NC(=O)[C@H](CC2CCCCC2)NC(=O)[C@H](CCN)NC1=O` [Compound 2539] ({CH2CO}-Y(Carboxymethyl)[Phe(4-COOH)]DWV[Bip]V[Orn][dL][Dab][Cha]VKC[AEEA][Dab][Aun]-OH; thioether N-14), for which the IC50 worked out at 5.3 nM.

As for `CCC[C@@H]1NC(=O)CSC[C@@H](C(=O)N[C@@H](CCN)C(=O)NCCOCCOCC(=O)NCCOCCOCC(=O)NCCCCCCCCCCCCCCC(=O)O)NC(=O)[C@H](CO)NC(=O)[C@H](C(C)(C)O)NC(=O)[C@H](CC2CCCCC2)NC(=O)[C@H](CCN)NC(=O)[C@@H](CC(C)C)NC(=O)[C@H](CCCN)NC(=O)[C@H](Cc2ccc(C(=O)O)cc2)NC(=O)[C@H](Cc2ccc(-c3ccccc3)cc2)NC(=O)[C@H](Cc2ccc(C(=O)O)cc2)NC(=O)[C@H](Cc2cccc(C)c2)NC(=O)[C@H](CC(=O)O)NC(=O)[C@H](Cc2ccc(OCC(=O)O)cc2)NC1=O` [Compound 2884] ({CH2CO}-[Nva]Y(Carboxymethyl)D[Phe(3-Me)][Phe(4-COOH)][Bip][Phe(4-COOH)][Orn][dL][Dab][Cha][Val(3-OH)]SC[Dab][AEEA][AEEA]-{NH(CH2)14COOH}; thioether N-14), the IC50 came to 133 nM.

`Cc1cccc(C[C@@H]2NC(=O)[C@H](CC(=O)O)NC(=O)[C@H](Cc3ccc(OCC(=O)O)cc3)NC(=O)[C@H](CCN)NC(=O)CSC[C@@H](C(=O)N[C@@H](CCN)C(=O)NCCOCCOCC(=O)NCCOCCOCC(=O)N[C@@H](CCC(=O)NCCCCCCCCCCCCCCC(=O)O)C(=O)O)NC(=O)[C@H](Cc3cnc[nH]3)NC(=O)[C@H](C(C)(C)O)NC(=O)[C@H](CC3CCCCC3)NC(=O)[C@H](CCN)NC(=O)[C@@H](CC(C)C)NC(=O)[C@H](CCCN)NC(=O)[C@H](Cc3ccc(C(=O)O)cc3)NC(=O)[C@H](Cc3ccc(-c4ccccc4)cc3)NC(=O)[C@H](Cc3ccc(C(=O)O)cc3)NC2=O)c1` [Compound 1253] ({CH2CO}-[Dab]Y(Carboxymethyl)D[Phe(3-Me)][Phe(4-COOH)][Bip][Phe(4-COOH)][Orn][dL][Dab][Cha][Val(3-OH)]HC[Dab][AEEA][AEEA]E(NH(CH2)14COOH)-OH; thioether N-14): the IC50 is 31.1 nM.

Turning to `CC(C)C[C@H]1NC(=O)[C@H](CCCN)NC(=O)[C@H](Cc2ccc(O)cc2)NC(=O)[C@H](Cc2ccc(-c3ccccc3)cc2)NC(=O)[C@H](Cc2ccc(O)cc2)NC(=O)[C@H](Cc2c[nH]c3ccccc23)NC(=O)[C@H](CC(=O)O)NC(=O)[C@H](Cc2ccc(OCC(=O)O)cc2)NC(=O)[C@H](CN)NC(=O)CSC[C@@H](C(=O)N[C@@H](CCN)C(=O)NCCOCCOCC(=O)NCCCCCCCCCCC(=O)O)NC(=O)[C@H](CCCCN)NC(=O)[C@H](Cc2ccc(O)cc2)NC(=O)[C@H](CC2CCCCC2)NC(=O)[C@H](CCN)NC1=O` [Compound 2503] ({CH2CO}-[Dap]Y(Carboxymethyl)DWY[Bip]Y[Orn][dL][Dab][Cha]YKC[Dab][AEEA][Aun]-OH; thioether N-14), the IC50 was 39.9 nM.

Take `CCC[C@@H]1NC(=O)CSC[C@@H](C(=O)N[C@@H](CCN)C(=O)NCCOCCOCC(=O)N[C@@H](CC(=O)NCCOCCOCC(=O)NCCCCCCCCCCCCC(=O)O)C(=O)O)NC(=O)[C@H](CO)NC(=O)[C@H](C(C)(C)O)NC(=O)[C@H](CC2CCCCC2)NC(=O)[C@H](CCN)NC(=O)[C@@H](CC(C)C)NC(=O)[C@H](CCCN)NC(=O)[C@H](Cc2ccc(C(=O)O)cc2)NC(=O)[C@H](Cc2ccc(-c3ccccc3)cc2)NC(=O)[C@H](Cc2ccc(C(=O)O)cc2)NC(=O)[C@H](Cc2cccc(C(F)(F)F)c2)NC(=O)[C@H](CC(=O)O)NC(=O)[C@H](Cc2ccc(OCC(=O)O)cc2)NC1=O` [Compound 2931] ({CH2CO}-[Nva]Y(Carboxymethyl)D[Phe(3-CF3)][Phe(4-COOH)][Bip][Phe(4-COOH)][Orn][dL][Dab][Cha][Val(3-OH)]SC[Dab][AEEA][βAsp][AEEA]-{NH(CH2)12COOH}; thioether N-14): the IC50 was determined as 26.3 nM.

As for `CC(C)C[C@H]1NC(=O)[C@H](CCCN)NC(=O)[C@H](C(C)C)NC(=O)[C@H](Cc2ccc(-c3ccccc3)cc2)NC(=O)[C@H](C(C)C)NC(=O)[C@H](Cc2c[nH]c3ccccc23)NC(=O)[C@H](CC(=O)O)NC(=O)[C@H](Cc2ccc(OCC(=O)O)cc2)NC(=O)[C@H](CN)NC(=O)CSC[C@@H](C(=O)NCCOCCOCC(=O)N[C@@H](CCN)C(=O)NCCCCCCCCCCC(=O)O)NC(=O)[C@H]([C@@H](C)O)NC(=O)[C@H](C(C)C)NC(=O)[C@H](CC2CCCCC2)NC(=O)[C@H](Cc2cnc[nH]2)NC1=O` [Compound 1096] ({CH2CO}-[Dap]Y(Carboxymethyl)DWV[Bip]V[Orn][dL]H[Cha]VTC[AEEA][Dab][Aun]-OH; thioether N-14), the IC50 is 15.7 nM.

`CC[C@H](C)[C@@H]1NC(=O)[C@H](Cc2ccc(-c3ccccc3)cc2)NC(=O)[C@H](C(C)C)NC(=O)[C@H](Cc2cccc(C)c2)NC(=O)[C@H](CC(=O)O)NC(=O)[C@H](Cc2ccc(OCC(=O)O)cc2)NC(=O)[C@H](CN)NC(=O)CSC[C@@H](C(=O)N[C@@H](CCCCN)C(=O)NCCOCCOCC(=O)NCCCCCCCCCCC(=O)O)NC(=O)[C@H](CN)NC(=O)[C@H](C(C)C)NC(=O)[C@H](CC2CCCCC2)NC(=O)[C@H](CCN)NC(=O)[C@@H](CC(C)C)NC(=O)[C@H](CCCN)NC1=O` [Compound 2650] ({CH2CO}-[Dap]Y(Carboxymethyl)D[Phe(3-Me)]V[Bip]I[Orn][dL][Dab][Cha]V[Dap]CK[AEEA][Aun]-OH; thioether N-14): the half-maximal inhibitory concentration (IC50) stood at 11.5 nM.

As for `CC(C)C[C@H]1NC(=O)[C@H](CCCN)NC(=O)[C@H](Cc2ccc(O)cc2)NC(=O)[C@H](Cc2ccc(-c3ccccc3)cc2)NC(=O)[C@H](C(C)C)NC(=O)[C@H](Cc2ccc(F)c(F)c2)NC(=O)[C@H](CC(=O)O)NC(=O)[C@H](Cc2ccc(OCC(=O)O)cc2)NC(=O)[C@H](CN)NC(=O)CSC[C@@H](C(=O)N[C@@H](CCN)C(=O)NCCOCCOCC(=O)NCCCCCCCCCCC(=O)O)NC(=O)[C@H](CCCN)NC(=O)[C@H](C(C)C)NC(=O)[C@H](CC2CCCCC2)NC(=O)[C@H](CCN)NC1=O` [Compound 1301] ({CH2CO}-[Dap]Y(Carboxymethyl)D[Phe(3,4-F2)]V[Bip]Y[Orn][dL][Dab][Cha]V[Orn]C[Dab][AEEA][Aun]-OH; thioether N-14), the IC50 came out at 31.9 nM.

On to `CCCC[C@@H]1NC(=O)CSC[C@@H](C(=O)N[C@@H](CCN)C(=O)NCCOCCOCC(=O)N[C@@H](CO)C(=O)N[C@H](CCC(=O)NCCCCCCCCCCCCCCC(=O)O)C(=O)O)NC(=O)[C@H](Cc2cnc[nH]2)NC(=O)[C@H](C(C)(C)O)NC(=O)[C@H](CC2CCCCC2)NC(=O)[C@H](CCN)NC(=O)[C@@H](CC(C)C)NC(=O)[C@H](CCCN)NC(=O)[C@H](Cc2ccc(OCC(=O)O)cc2)NC(=O)[C@H](Cc2ccc(-c3ccccc3)cc2)NC(=O)[C@H](Cc2ccc(C(=O)O)cc2)NC(=O)[C@H](Cc2cccc(C)c2)NC(=O)[C@H](CC(=O)O)NC(=O)[C@H](Cc2ccc(OCC(=O)O)cc2)NC1=O` [Compound 3894] ({CH2CO}-[Nle]Y(Carboxymethyl)D[Phe(3-Me)][Phe(4-COOH)][Bip]Y(Carboxymethyl)[Orn][dL][Dab][Cha][Val(3-OH)]HC[Dab][AEEA]S[dE](NH(CH2)14COOH)-OH; thioether N-14), for which the IC50 worked out at 106 nM.

With `Cc1cccc(C[C@@H]2NC(=O)[C@H](CC(=O)O)NC(=O)[C@H](Cc3ccc(OCC(=O)O)cc3)NC(=O)[C@H](CCCNC(=N)N)NC(=O)CSC[C@@H](C(=O)N[C@@H](CCCCN)C(=O)NCCCCCCCCCCC(=O)O)NC(=O)[C@H](CCCCN)NC(=O)[C@H](C(C)C)NC(=O)[C@H](CC3CCCCC3)NC(=O)[C@H](CCN)NC(=O)[C@@H](CC(C)C)NC(=O)[C@H](CCCN)NC(=O)[C@H](CCCNC(N)=O)NC(=O)[C@H](Cc3ccc(-c4ccccc4)cc3)NC(=O)[C@H](C(C)C)NC2=O)c1` [Compound 3470] ({CH2CO}-RY(Carboxymethyl)D[Phe(3-Me)]V[Bip][Cit][Orn][dL][Dab][Cha]VKCK[Aun]-OH; thioether N-14), the IC50 came to 24.8 nM.

`Cc1cccc(C[C@@H]2NC(=O)[C@H](CC(=O)O)NC(=O)[C@H](Cc3c[nH]cn3)NC(=O)[C@H](CCCCNC(=N)N)NC(=O)CSC[C@@H](C(=O)NCCOCCOCC(=O)NCCCCCCCCCCC(=O)O)NC(=O)[C@H](CCCN)NC(=O)[C@H](C(C)C)NC(=O)[C@H](CC3CCCCC3)NC(=O)[C@H](CCN)NC(=O)[C@@H](CC(C)C)NC(=O)[C@H](CCCN)NC(=O)[C@H](C(C)C)NC(=O)[C@H](Cc3ccc(-c4ccccc4)cc3)NC(=O)[C@H](C(C)C)NC2=O)c1` [Compound 3264] ({CH2CO}-[hArg]HD[Phe(3-Me)]V[Bip]V[Orn][dL][Dab][Cha]V[Orn]C[AEEA][Aun]-OH; thioether N-14): the IC50 turned out to be 12.6 nM.
